Measurements reported in patent US20240300976A1, “COMPOUNDS AS MODULATORS OF ENDOPLASMIC RETICULUM AMINOPEPTIDASE 1 (ERAP1)” (GREY WOLF THERAPEUTICS LIMITED, priority 2020, published 2024).
Read-outs that look alike come from different tables or passages of the source.

How the values were obtained:
[1] = DCM
ERAP1 = target: T1, ERAP1 (Homo sapiens, UniProt Q9NZ08); test: ERAP1 mediated hydrolysis of an amide substrate (10-mer inhibition assay), biochemical system; details: 10-mer substrate, incubated at 23° C. for 1 h, excitation 279 nm and emission 355 nm; read-out: IC50 vs Decapeptide WRVYEKC(Dnp)ALK-acid (where Dnp is Dinitrophenyl maleimide) (10-mer)
T1 construct: Purified ERAP1(37-941)-10His (ERAP1); 10His (C)
Summary of the method: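 Purified ERAP1(37-941)-10His in 25 mM Bis-tris propane, 0.05% HPMC, pH 7.75 was mixed with compound, then 240 μM L-AMC or 100 μM 10-mer WRVYEKC(Dnp)ALK (concentrations before mixing) was added, 1 h at 23 °C. 10-mer cleavage read as tryptophan fluorescence (ex 279/em 355 nm); L-AMC at ex 365/em 442 nm. IC50 from 4-parameter fit.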

T1 sequence (Q9NZ08 37-941): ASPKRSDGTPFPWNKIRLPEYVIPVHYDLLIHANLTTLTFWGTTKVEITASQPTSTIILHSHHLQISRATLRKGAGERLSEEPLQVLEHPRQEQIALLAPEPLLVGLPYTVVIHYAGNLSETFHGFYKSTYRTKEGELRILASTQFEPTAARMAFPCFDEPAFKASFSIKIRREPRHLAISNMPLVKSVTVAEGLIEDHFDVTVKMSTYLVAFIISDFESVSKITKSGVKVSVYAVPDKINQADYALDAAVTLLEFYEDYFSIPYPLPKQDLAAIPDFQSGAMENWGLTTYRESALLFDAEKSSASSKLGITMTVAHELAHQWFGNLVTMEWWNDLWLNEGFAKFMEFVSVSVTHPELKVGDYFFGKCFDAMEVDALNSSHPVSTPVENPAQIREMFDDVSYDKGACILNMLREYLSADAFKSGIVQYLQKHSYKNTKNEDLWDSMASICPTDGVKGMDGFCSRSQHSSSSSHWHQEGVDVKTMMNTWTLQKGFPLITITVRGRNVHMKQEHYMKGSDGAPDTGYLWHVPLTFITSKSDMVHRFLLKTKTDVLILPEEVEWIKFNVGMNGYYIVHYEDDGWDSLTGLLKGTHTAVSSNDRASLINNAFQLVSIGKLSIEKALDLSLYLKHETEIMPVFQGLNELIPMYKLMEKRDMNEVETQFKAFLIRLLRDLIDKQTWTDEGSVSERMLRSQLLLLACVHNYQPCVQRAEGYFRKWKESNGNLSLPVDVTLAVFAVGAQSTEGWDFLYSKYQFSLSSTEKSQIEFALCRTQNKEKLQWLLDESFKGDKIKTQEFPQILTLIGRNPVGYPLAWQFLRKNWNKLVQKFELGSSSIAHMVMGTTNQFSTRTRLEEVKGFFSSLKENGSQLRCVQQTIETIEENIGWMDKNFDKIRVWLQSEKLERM

For `COC(=O)c1ccc2c(c1)S(=O)(=O)Nc1cc(C#N)c(Cl)cc1N1CCCCC1C=CCO2` (centres unmarked), the ring closure, isolated yield ([1]; from C=CCOc1ccc(C(=O)OC)cc1S(=O)(=O)Nc1cc(C#N)c(Cl)cc1N1CCCCC1C=C, rcm bond, 12-membered ring, Hoveyda-Grubbs II (2 x 5 mol%), 56.3 mM, 88.0 h) was 25%.

Work on `COC(=O)c1ccc2c(c1)S(=O)(=O)Nc1cc(C#N)c(Cl)cc1N1CCCC[C@@H]1CCCO2` yielded a ring closure, isolated yield ([1]; from COC(=O)c1ccc(O)c(S(=O)(=O)Nc2cc(C#N)c(Cl)cc2N2CCCC[C@@H]2CCCO)c1, ether bond, 12-membered ring, PPh3/DIAD, 43.7 mM, 1.0 h) of 22%.

In the case of `COC(=O)c1ccc2c(c1)S(=O)(=O)Nc1cc(C#N)c(Cl)cc1N1CCCC[C@H]1CC=CCO2`, the ring closure, isolated yield ([1]; from C=CCOc1ccc(C(=O)OC)cc1S(=O)(=O)Nc1cc(C#N)c(Cl)cc1N1CCCC[C@H]1CC=C, rcm bond, 13-membered ring, Hoveyda-Grubbs II, 20.1 mM, 16.0 h) is reported as 81%.

Compound `COC(=O)c1ccc2c(c1)S(=O)(=O)Nc1cc(C#N)c(Cl)cc1N1CCCC[C@H]1CCCO2` has a ring closure, isolated yield ([1]; from COC(=O)c1ccc(O)c(S(=O)(=O)Nc2cc(C#N)c(Cl)cc2N2CCCC[C@H]2CCCO)c1, ether bond, 12-membered ring, PPh3/DIAD, 47.1 mM, 1.0 h) of 23%.

Work on `COC(=O)c1ccc2c(c1)S(=O)(=O)Nc1cc(C#N)c(F)cc1N1CCCC[C@H]1CCCCO2` yielded a ring closure, isolated yield ([1]; from COC(=O)c1ccc(O)c(S(=O)(=O)Nc2cc(C#N)c(F)cc2N2CCCC[C@H]2CCCCO)c1, ether bond, 13-membered ring, PPh3/DIAD, 31.7 mM, 1.0 h) of 88%.

`N#Cc1cc2c(cc1Cl)N1CCCC[C@H]1COC/C=C/c1ccc(C(=O)O)cc1S(=O)(=O)N2` [Example 70, (S,E)-3-chloro-2-cyano-6,7,8,9,9a,10-hexahydro-12H, 20H-dibenzo[e,i]pyrido[2,1-c][1]oxa[8]thia[4,7]diazacyclotridecine-17-carboxylic acid 19,19-dioxide] gave an IC50 (ERAP1) of less than 250 nM.

`N#Cc1cc2c(cc1Cl)N1CCCC[C@H]1CCC/C=C/c1ccc(C(=O)O)cc1S(=O)(=O)N2` [Example 71, (R,E)-3-chloro-2-cyano-6,7,8,9,9a,10,11,12-octahydro-20H-dibenzo[c,l]pyrido[1,2-e][1]thia[2,5]diazacyclotridecine-17-carboxylic acid 19,19-dioxide] showed an IC50 (ERAP1) of 250 to 1000 nM.

In the case of `N#Cc1cc2c(cc1Cl)N1CCCC[C@H]1CCCCCc1ccc(C(=O)O)cc1S(=O)(=O)N2` [Example 72, (R)-3-chloro-2-cyano-6,7,8,9,9a,10,11,12,13,14-decahydro-20H-dibenzo[c,l]pyrido[1,2-e][1]thia[2,5]diazacyclotridecine-17-carboxylic acid 19,19-dioxide], the IC50 (ERAP1) is reported as less than 250 nM.

For `N#Cc1cc2c(cc1Cl)N1CCCC[C@H]1COCCCc1ccc(C(=O)O)cc1S(=O)(=O)N2` [Example 73, (S)-3-chloro-2-cyano-6,7,8,9,9a,10,13,14-octahydro-12H, 20H-dibenzo[e,i]pyrido[2,1-c][1]oxa[8]thia[4,7]diazacyclotridecine-17-carboxylic acid 19,19-dioxide], the IC50 (ERAP1) was less than 250 nM.

Work on “(E)-20-tert-butyl 17-methyl 2-(trifluoromethyl)-6,7,8,9,9a,10-hexahydrodibenzo[b,f]pyrido[1,2-h][1,4,5,8]oxathiadiazacyclotridecine-17,20(13H)-dicarboxylate 19,19-dioxide” yielded a ring closure, isolated yield ([1]; rcm bond, 13-membered ring, Hoveyda-Grubbs II (two portions), 42.3 mM, 35.0 °C) of 33%.

“methyl (E)-2-cyano-7,8,9,9a,10,13-hexahydro-6H, 20H-dibenzo[b,f]pyrido[1,2-h][1]oxa[4]thia[5,8]diazacyclotridecine-17-carboxylate 19,19-dioxide” gave a ring closure, isolated yield ([1]; rcm bond, 13-membered ring, Hoveyda-Grubbs II (5 mol%), 50.2 mM) of 66%.
